The source made the active and inactive calls. The calls are words filed in the database; no cut-off is given here.
Experiments:
[1] = tested on: Mus musculus; assay: Antidepressant activity in NMRI albino mouse assessed as increase in locomotion at 20 mg/kg, ip after 2 hrs relative to vehicle-treated control; assay type: functional, organism-based; design: dose 20 mg/kg
[2] = tested on: Mus musculus; assay: Antidepressant activity in NMRI albino mouse assessed as hyperactivity by measuring motor excitation at 20 mg/kg, ip after 2 hrs relative to vehicle-treated control; assay type: functional, organism-based; design: dose 20 mg/kg
[3] = tested on: Mus musculus; assay: Antidepressant activity in NMRI albino mouse assessed as hyperactivity by measuring irritability at 20 mg/kg, ip after 2 hrs relative to vehicle-treated control; assay type: functional, organism-based; design: dose 20 mg/kg
[4] = tested on: Mus musculus; assay: Antidepressant activity in NMRI albino mouse assessed as hyperactivity by measuring sniffing at 20 mg/kg, ip after 2 hrs relative to vehicle-treated control; assay type: functional, organism-based; design: dose 20 mg/kg
[5] = tested on: Mus musculus; assay: Antidepressant activity in NMRI albino mouse assessed as hyperactivity by measuring tremor at 20 mg/kg, ip after 2 hrs relative to vehicle-treated control; assay type: functional, organism-based; design: dose 20 mg/kg
[6] = tested on: Mus musculus; assay: Antidepressant activity in NMRI albino mouse assessed as hyperactivity by measuring rearing at 20 mg/kg, ip after 2 hrs relative to vehicle-treated control; assay type: functional, organism-based; design: dose 20 mg/kg
[7] = tested on: Mus musculus; assay: Antidepressant activity in NMRI albino mouse assessed as hyperactivity by measuring circling of head at 20 mg/kg, ip after 2 hrs relative to vehicle-treated control; assay type: functional, organism-based; design: dose 20 mg/kg
[8] = tested on: Mus musculus; assay: Antidepressant activity in NMRI albino mouse assessed as hyperactivity by measuring repetitive movements of head at 20 mg/kg, ip after 2 hrs relative to vehicle-treated control; assay type: functional, organism-based; design: dose 20 mg/kg
[9] = target: Sodium-dependent noradrenaline transporter (Mus musculus, UniProt O55192)
Description: Inhibition of noradrenaline transporter in NMRI albino mouse brain assessed as [3H]NA accumulation in hypothalamus after 5 mins

[10] = target: Sodium-dependent serotonin transporter (Mus musculus, UniProt Q60857)
[11] = species on record: Mus musculus
Description: Mydriatic effect in iv dosed NMRI albino mouse assessed as concentration required to increase pupil diameter by 200%

[12] = in vivo; settings: NMRI albino, mouse, iv
Description: Acute toxicity in iv dosed NMRI albino mouse assessed as lethality up to 24 hrs

[13] = species on record: Mus musculus; assay: animal or person; settings: NMRI, Hypothalamus, ip
[14] = species on record: Mus musculus; assay: animal or person; settings: NMRI, Hypothalamus, ip; remark: listed apart in the source
[15] = species on record: Mus musculus; assay: animal or person; settings: NMRI, Hypothalamus, ip; remark: listed apart in the source
[16] = species on record: Mus musculus; assay: animal or person; settings: NMRI, ip
[17] = tested on: Mus musculus; assay: Induction of hyperactivity in NMRI albino mouse at 20 mg/kg, ip in presence of pimozide; assay type: functional, organism-based; design: dose 20 mg/kg
[18] = tested on: Mus musculus; assay: Induction of hyperactivity in NMRI albino mouse at 20 mg/kg, ip in presence of phenoxybenzamine; assay type: functional, organism-based; design: dose 20 mg/kg
[19] = tested on: Mus musculus; assay: Induction of hyperactivity in NMRI albino mouse at 20 mg/kg, ip in presence of methergoline; assay type: functional, organism-based; design: dose 20 mg/kg
[20] = tested on: Mus musculus; assay: Induction of hyperactivity in NMRI albino mouse at 20 mg/kg, ip in presence of reserpine; assay type: functional, organism-based; design: dose 20 mg/kg
[21] = tested on: Mus musculus; assay: Induction of hyperactivity in NMRI albino mouse at 20 mg/kg, ip in presence of alpha-methyltyrosine; assay type: functional, organism-based; design: dose 20 mg/kg

Sodium-dependent serotonin transporter, sequence (Q60857 whole entry): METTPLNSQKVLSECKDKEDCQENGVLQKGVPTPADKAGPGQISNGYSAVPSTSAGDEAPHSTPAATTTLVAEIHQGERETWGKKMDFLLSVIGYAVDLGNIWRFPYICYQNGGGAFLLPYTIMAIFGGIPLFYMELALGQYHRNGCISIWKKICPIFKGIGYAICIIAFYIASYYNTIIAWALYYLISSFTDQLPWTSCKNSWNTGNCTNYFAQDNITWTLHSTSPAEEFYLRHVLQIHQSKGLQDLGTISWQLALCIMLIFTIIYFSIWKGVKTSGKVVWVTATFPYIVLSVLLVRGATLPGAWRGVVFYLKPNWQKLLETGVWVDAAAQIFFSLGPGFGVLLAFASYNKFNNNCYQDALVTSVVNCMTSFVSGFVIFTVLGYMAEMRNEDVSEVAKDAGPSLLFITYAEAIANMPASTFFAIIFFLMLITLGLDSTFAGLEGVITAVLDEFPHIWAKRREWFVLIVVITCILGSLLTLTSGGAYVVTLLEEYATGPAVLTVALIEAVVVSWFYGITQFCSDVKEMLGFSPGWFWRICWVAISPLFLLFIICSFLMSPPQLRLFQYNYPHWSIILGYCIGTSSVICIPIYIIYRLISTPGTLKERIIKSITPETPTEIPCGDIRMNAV
Sodium-dependent noradrenaline transporter, sequence (O55192 whole entry): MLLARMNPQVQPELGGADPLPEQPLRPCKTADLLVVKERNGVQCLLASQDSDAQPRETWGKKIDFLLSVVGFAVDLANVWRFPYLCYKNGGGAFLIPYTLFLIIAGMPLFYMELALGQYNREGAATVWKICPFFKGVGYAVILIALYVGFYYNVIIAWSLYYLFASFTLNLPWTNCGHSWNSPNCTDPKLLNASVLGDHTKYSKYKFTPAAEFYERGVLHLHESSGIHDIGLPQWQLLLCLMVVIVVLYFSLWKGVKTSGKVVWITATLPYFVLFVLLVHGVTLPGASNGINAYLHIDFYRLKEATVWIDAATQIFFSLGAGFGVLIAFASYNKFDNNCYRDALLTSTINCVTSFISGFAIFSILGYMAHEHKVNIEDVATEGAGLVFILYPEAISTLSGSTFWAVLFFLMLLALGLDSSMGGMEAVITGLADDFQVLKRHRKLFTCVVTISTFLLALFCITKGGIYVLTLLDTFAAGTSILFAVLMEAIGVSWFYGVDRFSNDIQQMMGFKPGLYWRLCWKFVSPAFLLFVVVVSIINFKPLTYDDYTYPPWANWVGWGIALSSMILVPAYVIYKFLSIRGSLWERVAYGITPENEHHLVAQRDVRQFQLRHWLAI

Structure (SMILES)	Activity [1]	Activity [2]	Activity [3]	Activity [4]	Activity [5]	Activity [6]	Activity [7]	Activity [8]	IC50 [9] [nM]	IC50 [10] [nM]	PD200 [11] [µmol/kg]	LD50 at 24 h [12] [µmol/kg]	ED50 [13] [µmol/kg]	ED50 [14] [µmol/kg]	ED50 [15] [µmol/kg]	ED50 [16] [µmol/kg]	also measured
Cl.NC1CC(c2ccccc2)(c2ccccc2)C1	Active	Active	Active	Active	Active	Active	Active	Active	2200	2800	15	192	103	162	> 154	> 38	–
CN(C)C1CC(c2ccccc2)(c2ccccc2)C1.Cl	Active	Active	Active	Active	Active	Active	Active	Active	800	900	24	104	32	48	104	17	Activity [17]: inactive; Activity [18]: Active; Activity [19]: Active; Activity [20]: inactive; Activity [21]: Active
CN(C)CCCN1c2ccccc2CCc2ccc(Cl)cc21 [CLOMIPRAMINE]	–	–	–	–	–	–	–	–	–	–	6	142	109	20	> 113	8	–
CNC1CC(c2ccccc2)(c2ccccc2)C1.Cl	Active	Active	Active	Active	Active	Active	Active	Active	800	3000	9	128	31	95	91	9	–

Source: ChEMBL document CHEMBL3244106, “Antidepressant agents. 9. 3,3-Diphenylcyclobutylamines, a new class of central stimulants” (J Med Chem, 1978)
